These results are taken from ChEMBL document CHEMBL5321269, “Discovery, synthesis and biological evaluation of a series of N-(phenylcarbamothioyl)-2-napthamides as inhibitors of Claudin-1” (Bioorg Med Chem, 2023).

One data set deals with SW-620. Kind of data set: Cytotoxicity against human SW620 cells assessed as cell growth inhibition at 25 uM relative to control. It is filed as functional.
Data set [1] can be described thus: Protein binding in mouse plasma assessed as unbound fraction. Type of data set: ADME, cell-free.
Data set [2] is described as follows: Protein binding in human plasma assessed as unbound fraction. It is filed as ADME, cell-free.
The target of a further data set is CYP3A4 (Homo sapiens, UniProt P08684). Description: Inhibition of CYP3A4 (unknown origin) at 10 uM relative to control. It is filed as ADME.
A short description of data set [3]: Half life in CD1 mouse at 5 mg/kg, ip. Type of data set: ADME, organism-based. Particulars: in vivo.
A further data set has as its target CYP2C19 (Homo sapiens, UniProt P33261). Description: Inhibition of CYP2C19 (unknown origin) at 10 uM relative to control. Type of data set: ADME.
Data set [4] is described as follows: Cmax in CD1 mouse at 5 mg/kg, ip. It is filed as ADME, organism-based. On the set-up: dose 5 mg/kg, route ip. Particulars: in vivo.
Data set [5] can be described thus: Mean residence time in CD1 mouse at 5 mg/kg, ip. As to conditions: in vivo. It is filed as ADME, organism-based.
In a further data set the target is CYP2D6 (Homo sapiens, UniProt P10635). Kind of data set: Inhibition of CYP2D6 (unknown origin) at 10 uM relative to control. Type of data set: ADME.
Data set [6] in a line: Tmax in CD1 mouse at 5 mg/kg, ip. Type of data set: ADME, organism-based. Particulars: in vivo.
A short description of data set [7]: AUCinfinity in CD1 mouse at 5 mg/kg, ip. Type of data set: ADME, organism-based. On the set-up: dose 5 mg/kg, route ip. Particulars: in vivo.

CYP2C19, sequence (P33261 whole entry): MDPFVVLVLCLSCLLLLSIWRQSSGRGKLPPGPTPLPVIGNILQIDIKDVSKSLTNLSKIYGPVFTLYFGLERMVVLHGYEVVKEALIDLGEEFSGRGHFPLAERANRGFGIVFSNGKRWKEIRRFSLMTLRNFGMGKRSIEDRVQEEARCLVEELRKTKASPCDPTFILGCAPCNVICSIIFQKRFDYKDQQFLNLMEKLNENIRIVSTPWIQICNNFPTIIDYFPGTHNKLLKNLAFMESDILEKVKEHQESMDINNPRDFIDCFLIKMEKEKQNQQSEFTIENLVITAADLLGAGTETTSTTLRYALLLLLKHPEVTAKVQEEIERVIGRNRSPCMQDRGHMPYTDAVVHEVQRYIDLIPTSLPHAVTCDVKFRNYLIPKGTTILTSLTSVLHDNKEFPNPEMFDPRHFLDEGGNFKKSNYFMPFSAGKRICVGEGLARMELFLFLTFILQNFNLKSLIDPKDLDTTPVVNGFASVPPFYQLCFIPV
CYP3A4, sequence (P08684 whole entry): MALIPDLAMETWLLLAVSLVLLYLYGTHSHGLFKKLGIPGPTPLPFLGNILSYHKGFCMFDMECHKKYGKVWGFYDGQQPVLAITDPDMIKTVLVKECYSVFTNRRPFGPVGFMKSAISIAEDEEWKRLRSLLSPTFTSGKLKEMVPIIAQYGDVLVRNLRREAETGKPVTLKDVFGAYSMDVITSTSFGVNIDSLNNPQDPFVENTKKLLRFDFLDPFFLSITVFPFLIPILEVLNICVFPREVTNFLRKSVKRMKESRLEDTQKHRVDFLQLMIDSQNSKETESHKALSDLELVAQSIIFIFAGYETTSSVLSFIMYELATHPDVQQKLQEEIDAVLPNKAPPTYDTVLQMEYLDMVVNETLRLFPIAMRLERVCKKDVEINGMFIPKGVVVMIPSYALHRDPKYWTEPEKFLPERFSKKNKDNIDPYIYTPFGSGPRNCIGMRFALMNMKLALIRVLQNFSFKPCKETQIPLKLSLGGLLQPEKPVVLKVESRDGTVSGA
CYP2D6, sequence (P10635 whole entry): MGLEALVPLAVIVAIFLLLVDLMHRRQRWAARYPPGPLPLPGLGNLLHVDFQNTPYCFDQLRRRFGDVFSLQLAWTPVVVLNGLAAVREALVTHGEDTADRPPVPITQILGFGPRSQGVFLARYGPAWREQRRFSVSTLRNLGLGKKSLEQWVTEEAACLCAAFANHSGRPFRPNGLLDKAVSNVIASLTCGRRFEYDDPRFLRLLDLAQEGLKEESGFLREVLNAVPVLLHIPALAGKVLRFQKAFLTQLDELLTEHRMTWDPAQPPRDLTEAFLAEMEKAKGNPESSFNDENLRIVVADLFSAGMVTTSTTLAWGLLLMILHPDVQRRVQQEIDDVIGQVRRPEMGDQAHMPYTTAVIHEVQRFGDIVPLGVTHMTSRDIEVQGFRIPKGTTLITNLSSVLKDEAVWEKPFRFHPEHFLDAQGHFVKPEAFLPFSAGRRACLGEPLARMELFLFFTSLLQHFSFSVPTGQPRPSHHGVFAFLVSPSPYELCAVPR

`COc1cc2ccccc2cc1C(=O)NC(=O)Nc1ccc(-c2nc3ccccc3s2)cc1`: the inhibition at 25 µM in the data set on SW-620 was 0%.
As for `COc1ccccc1C(=O)NC(=S)Nc1ccc(-c2nc3ccccc3o2)cc1`, the inhibition at 25 µM with SW-620 was 17.2%.
For `COc1cc2ccccc2cc1C(=O)NC(=S)Nc1ccc(-c2nc3ccccc3[nH]2)cc1`, the inhibition at 25 µM in the data set on SW-620 worked out at 68.4%. Besides, the Fu in data set [1] was less than 0.01%; in [2], less than 0.03%.
Regarding `COc1cc2ccccc2cc1C(=O)Nc1ncc(C(F)(F)F)s1`, the inhibition at 25 µM with SW-620 came out at 17.6%.
Still for that read-out and setting: the same measure for `O=C(Nc1ccc(N2CCN(C(=O)c3ccc4ccccc4c3)CC2)cc1)c1cc2ccccc2o1`: 27.8%; for `O=C(NC(=S)Nc1ccc(-c2nc3ccccc3[nH]2)cc1)c1ccc2cccnc2c1`: 0%; for `CCOc1cc2ccccc2cc1C(=O)NC(=S)Nc1ccc(-c2nc3ccccc3s2)cc1`: 13%.
For `O=C(NC(=S)Nc1ccc(-c2nc3ccccc3o2)cc1)c1ccc2cccnc2c1`, in the data set on SW-620, the inhibition at 25 µM turned out to be 0%.
On the same count and under the same terms, then `COc1ccccc1C(=O)NC(=S)Nc1ccc(-c2nc3ccccc3[nH]2)cc1`, with 16.9%; and `O=C(Nc1ccc(N2CCN(C(=O)c3ccccn3)CC2)cc1)c1cc2ccccc2o1`, with 44.8%.
On the same count and under the same terms, then `COc1cc2ccccc2cc1C(=O)NC(=S)Nc1ccc(-c2nc3ccccc3s2)cc1`, with 7.1%; and `COc1ccccc1NC(=O)Nc1ccc(-c2nc3ccccc3o2)cc1`, with 19.9%; and `COc1ccccc1NC(=S)Nc1ccc(-c2nc3ccccc3[nH]2)cc1`, with 13.2%.
Regarding `O=C(NC(=S)Nc1ccc(-c2ncco2)cc1)c1ccc2cccnc2c1`, in the data set with SW-620, the inhibition at 25 µM came out at 1.4%.
Regarding `COc1ccccc1NC(=O)Nc1ccc(-c2nc3ccccc3[nH]2)cc1`, the inhibition at 25 µM with SW-620 came to 23.8%.
For `COc1cc2ccccc2cc1C(=O)NC(=S)Nc1ccc(-c2ncon2)cc1`, the inhibition at 25 µM with SW-620 worked out at 18.4%. Further, in data set [1], the Fu is reported as less than 0.03%.
On the same counts, the results for `COc1cc2ccccc2cc1C(=O)NC(=S)Nc1ccc(-c2nccs2)cc1` are 34.8% and 2.2%.
Turning to `O=C(NC(=O)c1ccc2ccccc2c1)Nc1ccc(-c2nc3ccccc3[nH]2)cc1`, the inhibition at 25 µM in the data set on SW-620 is 12.7%.
Still for that read-out and setting: then `COc1cc2ccccc2cc1C(=O)NC(=S)Nc1ccc(-c2nc3ccccc3o2)cn1`, with 0%.
Consider `COc1cc2ccccc2cc1C(=O)NC(=S)Nc1ccc(-c2nc3ccccc3s2)cn1`, for which the inhibition at 25 µM in the data set on SW-620 is 71.9%.
The same measure, in the same setting: the same measure for `COc1cc2ccccc2cc1C(=O)NC(=S)Nc1ccc(-c2ncco2)cc1`: 33.1%.
Regarding `O=C(NC(=S)Nc1ccc(-c2nc3ccccc3o2)cc1)c1ccc2ccccc2c1`, in the data set with SW-620, the inhibition at 25 µM stood at 76.4%. For the same compound, the Fu is given as less than 0.03% in [1] and less than 0.04% in data set [2].
With `CCOc1cc2ccccc2cc1C(=O)NC(=S)Nc1ccc(-c2nc3ccccc3o2)cc1`, the inhibition at 25 µM in the data set on SW-620 is 0%.
On to `O=C1c2ccccc2CCN1C(=S)Nc1ccc(-c2nc3ccccc3o2)cc1`, for which the inhibition at 25 µM in the data set with SW-620 was 0%. Besides, the Fu in data set [2] is given as less than 0.03%.
For `COc1cc2ccccc2cc1C(=O)NC(=S)Nc1ccc(-c2nnco2)cc1`, the inhibition at 10 µM stood at 16% against CYP3A4, 37% against CYP2C19 and 19% against CYP2D6. In addition, the half-life in data set [3] was 3.51 h. This compound returned a peak concentration (Cmax) in data set [4] of 5100 ng/mL. Moreover, the mean residence time (MRT) in data set [5] stood at 5.3 h. In data set [6], the time to peak (Tmax) worked out at 2.33 h. Also, the inhibition at 25 µM in the data set on SW-620 stood at 86.5%. In data set [7], the area under the curve AUC(0-inf) was found to be 34100 ng·h/mL.
On to `COc1cc2ccccc2cc1C(=O)Nc1ccc(-c2nc3ccccc3s2)cc1`, for which, in the data set on SW-620, the inhibition at 25 µM worked out at 42.3%.
As to `CC(C)Oc1cc2ccccc2cc1C(=O)NC(=S)Nc1ccc(-c2nc3ccccc3o2)cc1`, in the data set with SW-620, the inhibition at 25 µM worked out at 17.2%.
With `COc1cc2ccccc2cc1C(=O)NC(=O)Nc1ccc(-c2nc3ccccc3[nH]2)cc1`, in the data set with SW-620, the inhibition at 25 µM was found to be 90.8%. The Fu in data set [1] and in data set [2] was less than 0.3% throughout.
`COc1cc2ccccc2cc1C(=O)NC(=O)Nc1ccc(-c2nc3ccccc3o2)cc1`: the inhibition at 25 µM with SW-620 stood at 0%.
As to `COc1cc2ccccc2cc1C(=O)NC(=S)Nc1ccc(-c2ncc[nH]2)cc1`, the inhibition at 10 µM against CYP3A4 is 28%; at CYP2C19, 43%; at CYP2D6, 36%. In data set [3], this compound gave a half-life of 2.49 h. The compound further showed a peak concentration (Cmax) in data set [4] of 5060 ng/mL. In data set [5], this compound registered an MRT of 2.7 h. The time to peak (Tmax) in [6] turned out to be 1 h. In addition, in the data set with SW-620, the inhibition at 25 µM came out at 89.9%. This compound also gave an AUC(0-inf) in data set [7] of 15900 ng·h/mL.
On to `COc1cc2ccccc2cc1C(=O)NC(=S)Nc1ccc(-c2cscn2)cc1`, for which the inhibition at 25 µM with SW-620 came out at 29%.
The same measure, in the same setting: then `COc1ccccc1NC(=S)Nc1ccc(-c2nc3ccccc3o2)cc1`, with 29.2%.
For the compound `COc1cc2c(OC)cccc2cc1C(=O)NC(=S)Nc1ccc(-c2nc3ccccc3[nH]2)cc1`, the inhibition at 25 µM in the data set on SW-620 turned out to be 37.6%.
On the same count and under the same terms, the same measure for `COc1cc2c(OC)cccc2cc1C(=O)NC(=S)Nc1ccc(-c2nc3ccccc3s2)cc1`: 15.8%.
Still for that read-out and setting: then `CCOc1cc2ccccc2cc1C(=O)NC(=S)Nc1ccc(-c2nnco2)cc1`, with 0%.
Regarding `COc1cc2ccccc2cc1C(=O)NC(=O)Nc1ccc(-c2cscn2)cc1`, in the data set on SW-620, the inhibition at 25 µM is 42.6%. Moreover, the Fu in data set [1] and in data set [2] was less than 0.3% each time.
`COc1cc2ccccc2cc1C(=O)NC(=S)Nc1ccc(-c2nc3ccccc3o2)cc1`: the inhibition at 25 µM in the data set with SW-620 came out at 57.6%. In data set [1], the Fu is less than 0.03%.
Regarding `O=C1c2ccccc2CCN1C(=S)Nc1ccc(-c2ncco2)cc1`, the inhibition at 25 µM with SW-620 stood at 0.9%.

As a reminder, the inhibition is how much of the control response was suppressed. As usually defined, the half-life is the time in which the quantity being followed falls by half. A high value points to slow decline. As a reminder, the Cmax is the peak of the concentration-time curve. A word on the MRT: it is a mean duration of stay, worked out from the concentration-time curve. A word on the Tmax: it is the time at which the peak concentration occurs. The term AUC(0-inf) denotes total exposure, with the tail of the curve extrapolated. The low end stands for less exposure, the high end for more exposure.
